Columns and labels:
[1] = biological target: T1, CYP3A4 (Homo sapiens, UniProt P08684); assay: CYPs inhibition assay, CYP3A4; type: in vitro ADME
T1 construct: from tissue; host or cells: human liver microsomes
Protocol: (§1) Finally, we evaluated the interaction between the hybrid A8 and five major metabolic enzymes (CYP1A2, CYP2C9, CYP2C19, CYP2D6 and CYP3A4) in the human body. […] It is also one of the directions for our further transformation and optimization.
(§2) Cytochrome P450 inhibition was evaluated in human liver microsomes (0.253 mg/mL) using five […] (CYP1A2, α-Naphthoflavone; CYP2C9, Sulfaphenazole; CYP2C19, Benzylnirvanol; CYP2D6, Quinidine; and CYP3A4, Ketoconazole.) in the presence of compound A8 (10 μM). After preincubation for 10 min at 37 °C, an NADPH-regenerating system was added. After the mixed system was incubated for 15 min at 37 °C, the reaction was stopped by adding 400 μL of cold stop solution (200 ng/mL tolbutamide and 200 ng/mL labetalol in acetonitrile). Then, the mixture was centrifuged, and the supernatant was analyzed by LC-MS/MS.

[2] = test system: Bax; assay: Western blotting, Bax expression; type: cell-based, human; details: MCF-7, 0, 2.5, 5 and 10 μM, 48 h, GAPDH internal control
Protocol: (§3) Based on the JC-1 staining results, we further analyzed the expression of proteins related to apoptosis using a Western blotting assay with GAPDH as an internal control. […] Then, an excess of cytochrome C can enhance caspase-3 activation to stimulate apoptosis.
(§4) MCF-7 cells were seeded at a density of 4 × 10^5 cells per well and treated with various concentrations of compound A8 (0, 2.5, 5 and 10 μM) for 48 h. After this, cells were collected and washed twice with ice-cold DPBS. The pellets were resuspended in a total protein extraction buffer (20 mM HEPES, 350 mM NaCl, 20% glycerol, 1% NP-40, 1 mM MgCl2, 0.5 mM EDTA, 0.1 mM EGTA, 0.1 mM DTT, 0.1 mM PMSF) containing a protease inhibitor cocktail and incubated on ice for 30 min with intermittent mixing. The protein concentration was measured using the Bradford reagent (Bio-Rad Laboratories Inc., Hercules, CA, USA). An equal amount (20 μg) of protein was loaded on 10% polyacrylamide gels and transferred to a nitrocellulose membrane. After blocking with 5% skimmed milk, the membrane was incubated at 4 °C overnight with specific primary antibodies. The membrane was washed and incubated at room temperature for 1 h with secondary antibodies conjugated with horseradish peroxidase (HRP). Finally, the immunoblot was developed for visualization using a chemiluminescence kit. […]

[3] = test system: Bcl-2; assay: Western blotting, Bcl-2 expression; type: cell-based, human; details: MCF-7, 0, 2.5, 5 and 10 μM, 48 h, GAPDH internal control
Protocol: as §3, §4

[4] = biological target: T2, CYP2C19 (Homo sapiens, UniProt P33261); assay: CYPs inhibition assay, CYP2C19; type: in vitro ADME; details: human liver microsomes
T2 construct: from tissue; host or cells: human liver microsomes
Protocol: as §1, §2

[5] = test system: GPX4; assay: Western blotting, GPX4 expression; type: cell-based, human; details: MCF-7, 0, 2.5, 5 and 10 μM, 48 h
Protocol: We examined the effect of A8 on the expression of GPX4 as well, which is vital in preventing ferroptosis. […] Thus, we concluded that A8 induced the accumulation of ROS and lipid peroxidation and suppressed GSH levels and the expression of GPX4, thereby leading to the induction of ferroptosis.
as §4

T1 sequence (P08684 whole entry): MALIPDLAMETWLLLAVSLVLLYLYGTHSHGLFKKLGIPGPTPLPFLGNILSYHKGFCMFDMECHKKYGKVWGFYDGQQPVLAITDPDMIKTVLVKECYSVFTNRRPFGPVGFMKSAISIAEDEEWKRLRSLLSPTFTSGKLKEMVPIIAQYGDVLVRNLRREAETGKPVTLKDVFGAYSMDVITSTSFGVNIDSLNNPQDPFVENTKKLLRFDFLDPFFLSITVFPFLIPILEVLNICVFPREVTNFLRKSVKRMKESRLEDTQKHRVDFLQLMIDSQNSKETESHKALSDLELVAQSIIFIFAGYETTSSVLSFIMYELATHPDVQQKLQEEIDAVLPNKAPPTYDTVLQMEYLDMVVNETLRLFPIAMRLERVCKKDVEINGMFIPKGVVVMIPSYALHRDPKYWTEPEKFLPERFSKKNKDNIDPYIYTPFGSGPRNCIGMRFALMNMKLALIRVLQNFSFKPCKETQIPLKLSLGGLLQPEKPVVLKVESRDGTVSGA
T2 sequence (P33261 whole entry): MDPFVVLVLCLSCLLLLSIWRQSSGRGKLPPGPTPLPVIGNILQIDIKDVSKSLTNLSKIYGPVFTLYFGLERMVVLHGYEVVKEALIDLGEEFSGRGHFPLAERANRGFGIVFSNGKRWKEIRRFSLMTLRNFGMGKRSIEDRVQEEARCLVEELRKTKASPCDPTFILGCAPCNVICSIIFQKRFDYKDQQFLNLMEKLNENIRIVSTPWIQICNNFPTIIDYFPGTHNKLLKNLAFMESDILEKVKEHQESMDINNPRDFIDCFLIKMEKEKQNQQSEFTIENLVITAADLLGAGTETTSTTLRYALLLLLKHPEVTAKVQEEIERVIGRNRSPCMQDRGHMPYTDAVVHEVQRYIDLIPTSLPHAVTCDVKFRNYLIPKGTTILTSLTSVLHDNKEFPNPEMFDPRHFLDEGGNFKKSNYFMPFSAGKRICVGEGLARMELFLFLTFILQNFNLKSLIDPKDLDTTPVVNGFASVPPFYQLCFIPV

CC1CCC2C(C)C(OC(=O)CCC(=O)NCc3nnc(Nc4ccc(F)cc4F)o3)OC3OC4(C)CCC1C32OO4 (stereo not drawn) [A8]
inhibitory effect on CYP3A4 (in words) ([1]; 10 μM): moderate inhibitory effect | Inhibition at 10 μM (%) CYP3A4 ([1]; human liver microsomes): 55.8% | expression of Bax (in words) [2]: upregulated | expression of Bcl-2 (in words) [3]: significantly downregulated | Inhibition at 10 μM (%) CYP2C19 [4]: 12.3% | GPX4 expression (in words) [5]: dose-dependent inhibition of GPX4 expression
